Measurements from US20130096212A1, “Method and a Kit to Predict Response to Antidepressant Treatment” (UNIVERSITY OF TARTU, priority 2011, published 2013).

Key:
[1] = test system: outpatients with Major Depressive Disorder; assay: 12-week open-label escitalopram treatment of MDD outpatients, Estonian sample (MADRS, HAM-D, CGI), also by rs41271330 genotype; type: in vivo, human; conditions: for patients with moderate or severe depression (MADRS score 16 or more): end of 12 weeks
Excerpt: The study sample consisted of 135 outpatients with Major Depressive Disorder, MDD (mean age 31.1±11.6 years, 68% females) recruited at the Psychiatry Clinic of Tartu University Hospital in Estonia. The diagnosis according to DSM-IV criteria was verified using Mini International Neuropsychiatric Interview (M.I.N.I. 5.0.0) and substantiated by psychiatric history and medical records. At least moderate severity of depression was required for inclusion as indicated by a Montgomery-Asberg Depression Rating Scale (MADRS) total score of 22 or higher. MDD patients with a secondary current comorbid anxiety disorder were included in this study, except for obsessive-compulsive disorder, posttraumatic stress disorder, or panic disorder, and these comprised 51% of the sample. Patients were excluded if they met diagnostic criteria for any of the following: bipolar disorder, psychotic disorder or features, current eating disorders, mental retardation, any pervasive developmental disorder or cognitive disorder, or alcohol or drug abuse-related disorders within 12 months prior to baseline. Additional exclusion criteria were acute infections, neurological or any other unstable general disorders, serious suicide risk, formal behaviour therapy, or systematic psychotherapy, pregnancy or breastfeeding. None of patients was known to have a history of hypersensitivity or non-response to escitalopram or other SSRIs. The Human Studies Ethics Committee of the University of Tartu and State Agency of Medicines had approved the study protocol, which was in accordance with Declaration of Helsinki. All participants provided their written informed consent.
The patients were treated with escitalopram 10-20 mg/day for 12 weeks using an open-label, placebo non-controlled study design. No other medications, including anti-inflammatory drugs, were allowed during the study, except for hormonal contraceptives and zolpidem or zopiclone for insomnia. Clinical severity and treatment response were assessed bi-weekly using the MADRS and Clinical Global Impression scale (CGI). Hamilton Depression Scale (HAM-D) was also used as a secondary scale for clinical assessments. Additionally, the patients were asked to evaluate the depressive symptoms on the Beck Depression Inventory (BDI) and possible side effects on the Toronto Side-effect Scale (TSES) at each visit. All patients started treatment with escitalopram at a dose of 10 mg/day for the first 4 weeks. The patients showing at least 50% decline in the MADRS total score at week 4 continued taking 10 mg of escitalopram until the end of study. […] At the end of week 12 the patients were defined as responders if the decrease in both MADRS and HAM-D total scores was at least 50% and score on the CGI improvement scale was 2 or less. The remitters were defined if the scores were less than 12 on the MADRS and less than 8 on the HAM-D accordingly to earlier clinical trials. […] The severity of depressive symptoms and treatment response were rated blindly to genotypes by one psychiatrist. Each visit the patients were also asked to report about their regularity of taking the medication.
(§1) These 38 markers were genotyped in the remaining 116 individuals, and tested for association with the clinical outcome. Three different outcome definitions were used: MADRS score at the final visit (week 12), relative change (percentage) in MADRS score since baseline, and absolute change in MADRS score since baseline. For each outcome, a univariate additive regression model was fitted to assess the association, as well as a multivariate model, adjusted for age, gender, age at first depression episode, baseline MADRS and BDI scores. Additionally a mixed-effects longitudinal model was fit for MADRS scores at week 0 to week 12, using a random subject-specific intercept. Also here, both unadjusted and adjusted models were fit. […]

MDD patients = assay: Replication sample: MDD patients treated with escitalopram for 12 weeks, MADRS change by rs41271330 genotype; type: in vivo, human; conditions: 394 patients, SE=3%
Excerpt: as §1, with “Replication sample consisted of 394 patients treated with escitalopram for 12 weeks. All the patients were of European origin. […] For validation of significant markers from previous step 5 SNPs were genotyped with pre-designed Taqman assays and one SNP was genotyped with Sanger sequencing. These” for “These”, “fit. Age at recruitment, gender, age at first depression episode and baseline BDI score appeared to be independently predictive (p<0.05) for at least one of the outcomes after adjusting for other covariates in a multivariate regression model and were therefore used as adjustment variables for genotype-outcome association.” for “fit.”

## CN(C)CCC[C@@]1(c2ccc(F)cc2)OCc2cc(C#N)ccc21 [escitalopram]
[1]; 12-week study
  patients who discontinued treatment due to lack of efficacy or side effects: 6.7%
[1]; Estonian sample, 116 patients, SE=6%
  decrease of relative MADRS score reduction from baseline per copy of the rs41271330 minor allele: 18%
[1]; carriers of rs41271330 minor allele
  patients who needed an increased dose after the initial 4 weeks: 88.9%
[1]; carriers of rs41271330 minor allele (A), 14/27
  patients with moderate or severe depression (MADRS score 16 or more): 52%
[1]; homozygous for rs41271330 major allele (G), 19/89
  patients with moderate or severe depression (MADRS score 16 or more): 22%
[1]; end of week 12
  patients with insufficient or partial response to treatment: 32.6%
[1]; end of week 12, 10-20 mg/day, 135 MDD outpatients, at least 50% decrease in MADRS and HAM-D and CGI improvement 2 or less
  patients defined as responders: 60.7%
[1]; end of week 12, MADRS less than 12 and HAM-D less than 8, of total sample
  patients who achieved remission: 58.5%
[1]; homozygous for rs41271330 major allele
  patients who needed an increased dose after the initial 4 weeks: 62.9%
[1]; of 85 patients on 20 mg, end of study
  responders among the patients whose daily dose was increased and kept at 20 mg: 41 patients
[1]; rs41271330 A/G + A/A
  number of patients with MADRS score at week 12 of 0...7: 9
  number of patients with MADRS score at week 12 of 8...15: 4
  number of patients with MADRS score at week 12 of 16...25: 10
  number of patients with MADRS score at week 12 of >25: 4
  share of patients with MADRS score at week 12 of 0...7: 33%
  share of patients with MADRS score at week 12 of 8...15: 15%
  share of patients with MADRS score at week 12 of 16...25: 37%
  share of patients with MADRS score at week 12 of >25: 15%
[1]; rs41271330 G/G
  number of patients with MADRS score at week 12 of 0...7: 61
  number of patients with MADRS score at week 12 of 8...15: 9
  number of patients with MADRS score at week 12 of 16...25: 15
  number of patients with MADRS score at week 12 of >25: 4
  share of patients with MADRS score at week 12 of 0...7: 69%
  share of patients with MADRS score at week 12 of 8...15: 10%
  share of patients with MADRS score at week 12 of 16...25: 17%
  share of patients with MADRS score at week 12 of >25: 4%
MDD patients
  decrease of relative MADRS score reduction from baseline per copy of the rs41271330 minor allele: 7%
